# Results as given in patent publication US12129265B2, “Therapeutic agents and uses thereof” (Ankh Life Sciences Limited, priority 2020, dated 2024).
# Like-named read-outs stand apart in the source and are kept apart here.
# Tests used:
# Test in all cases: CellTiter-Glo in vitro cell proliferation assay, Example 8
# [1] = system: Jeko-1 Bortezomib resistant cells; type: cell-based; conditions: Homo sapiens, Mantle Cell Lymphoma, 72 hours
# Description: (§1) In this Example, in vitro cell proliferation assays were performed using: (1) Human Myeloma tumor cell lines; (2) Human Lymphoma tumor cell lines; (3) Solid Human tumor cell lines; and (4) Parental, Lenalidomide resistant and Bortezomib resistant Jeko-1 Mantle cell Lymphoma tumor cell lines. The compounds tested were three diharmaline compounds, namely the 518B562 (or simply 562), 560, and 561 compounds. In addition, a monoharmaline product designated as 518F014 was also tested. This monoharmaline product had the following structure:
# (§2) Each proliferation assay was carried out as follows. The test cells were plated in growth media using a 384-well microtiter plate at 50 μL volume. The cells were incubated for 24 hours at 37° C. in a humidified incubator. After 24 hours of incubation, the test compounds were added to the test wells in DSMO solvent, at concentrations ranging from 0.0075-100 μM. Control wells received equal volumes of DSMO, without compound. Following drugging, the cells were incubated for 72 hours at 37° C. in a humidified incubator. After this exposure, 100 μL of a 1:1 mixture of sterile water and CellTiter-Glo® reagent (Promega) was added to each well. The plates were then incubated for 60 minutes at room temperature, followed by recording the luminescence value of each well using a luminometer as a measure of cell proliferation.
# [2] = system: SU-DHL-6 cells; type: cell-based; conditions: Homo sapiens; SU-DHL-6, Diffuse Large B-Cell Lymphoma, 72 hours; read-out: Mean IC50
# Description: as §1, §2
# [3] = system: N87 cells; type: cell-based; conditions: Homo sapiens; N87, Gastric, 72 hours; read-out: Mean IC50
# Description: as §1, §2
# [4] = system: Jeko-1 Lenalidomide resistant cells; type: cell-based; conditions: Homo sapiens, Mantle Cell Lymphoma, 72 hours
# Description: as §1, §2
# [5] = system: Jeko-1 Parental cells; type: cell-based; conditions: Homo sapiens, Mantle Cell Lymphoma, 72 hours
# Description: as §1, §2
# [6] = system: SU-DHL-4 cells; type: cell-based; conditions: Homo sapiens; SU-DHL-4, Diffuse Large B-Cell Lymphoma, 72 hours; read-out: Mean IC50
# Description: as §1, §2
# [7] = system: RXF-393 cells; type: cell-based; conditions: Homo sapiens; RXF-393, Renal, 72 hours; read-out: Mean IC50
# Description: as §1, §2
# [8] = system: KHM-1B cells; type: cell-based, Human; conditions: Human Myeloma, 72 hours, read-out: Mean IC50
# Procedure, shortened: (§3)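 Cells were plated, incubated 24 h at 37 °C, then exposed to compound (0.0075–100 μM, DMSO vehicle; DMSO-only controls) for 72 h at 37 °C. Proliferation was read by CellTiter-Glo luminescence after 60 min at room temperature.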
# [9] = system: OCI-LY3 cells; type: cell-based, Human; conditions: read-out: Mean IC50
# Procedure, shortened: as §3
# [10] = system: MDA-MB-231 cells; type: cell-based, Human; conditions: read-out: Mean IC50
# Procedure, shortened: as §3
# [11] = system: FaDu cells; type: cell-based, Human; conditions: read-out: Mean IC50
# Procedure, shortened: as §3
# [12] = system: H929 cells; type: cell-based, Human; conditions: NCI-H929; H929, Human Myeloma, 72 hours; read-out: Mean IC50
# Procedure, shortened: as §3
# [13] = system: MOLP-8 cells; type: cell-based, Human; conditions: read-out: Mean IC50
# Procedure, shortened: as §3
# [14] = system: KMS-27 cells; type: cell-based, Human; conditions: KMS-27, Human Myeloma, 72 hours; read-out: Mean IC50
# Procedure, shortened: as §3
# [15] = system: MM.1s cells; type: cell-based, Human; conditions: MM1.S; MM.IS, Human Myeloma, 72 hours; read-out: Mean IC50
# Procedure, shortened: as §3
# [16] = system: A498 cells; type: cell-based, Human; conditions: read-out: Mean IC50
# Procedure, shortened: as §3
# [17] = system: H1650 (EGFR mut) cells; type: cell-based, Human; conditions: read-out: Mean IC50
# Procedure, shortened: as §3
# [18] = system: ASPC-1 cells; type: cell-based, Human; conditions: ASPC-1, Pancreatic, read-out: Mean IC50
# Procedure, shortened: as §3
# [19] = system: DOHH-2 cells; type: cell-based, Human; conditions: read-out: Mean IC50
# Procedure, shortened: as §3
# [20] = system: L363 cells; type: cell-based, Human; conditions: read-out: Mean IC50
# Procedure, shortened: as §3
# [21] = system: KMS-11 cells; type: cell-based, Human; conditions: KMS-11, Human Myeloma, 72 hours; read-out: Mean IC50
# Procedure, shortened: as §3
# [22] = system: H1975 (EGFR mut) cells; type: cell-based, Human; conditions: read-out: Mean IC50
# Procedure, shortened: as §3
# [23] = system: MIA PaCa-2 cells; type: cell-based, Human; conditions: MIA PaCa-2, Pancreatic, read-out: Mean IC50
# Procedure, shortened: as §3
# [24] = system: KMS-34 cells; type: cell-based, Human; conditions: read-out: Mean IC50
# Procedure, shortened: as §3
# [25] = system: HCC70 cells; type: cell-based, Human; conditions: read-out: Mean IC50
# Procedure, shortened: as §3
# [26] = system: JIM1 cells; type: cell-based, Human; conditions: read-out: Mean IC50
# Procedure, shortened: as §3
# [27] = system: KMM-1 cells; type: cell-based, Human; conditions: read-out: Mean IC50
# Procedure, shortened: as §3
# [28] = system: BxPC-3 cells; type: cell-based, Human; conditions: BxPC-3, Pancreatic, read-out: Mean IC50
# Procedure, shortened: as §3
# [29] = system: MDA-MB-468 cells; type: cell-based, Human; conditions: read-out: Mean IC50
# Procedure, shortened: as §3
# [30] = system: SiHA cells; type: cell-based, Human; conditions: read-out: Mean IC50
# Procedure, shortened: as §3
# [31] = system: HEC-1a cells; type: cell-based, Human; conditions: Endometrial, read-out: Mean IC50
# Procedure, shortened: as §3
# [32] = system: AN3CA cells; type: cell-based, Human; conditions: Endometrial, read-out: Mean IC50
# Procedure, shortened: as §3
# [33] = system: A2780CP cells; type: cell-based, Human; conditions: Ovarian, read-out: Mean IC50
# Procedure, shortened: as §3
# [34] = system: A2780 cells; type: cell-based, Human; conditions: A2780, Ovarian, read-out: Mean IC50
# Procedure, shortened: as §3
# [35] = system: RPMI-8226 cells; type: cell-based, Human; conditions: RPMI-8226, HMM
# Procedure, shortened: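 After 24 h plating, cells exposed to compound in DMSO over 0.0075–100 µM for 72 h at 37 °C. Viability read by CellTiter-Glo luminescence after 60 min at room temperature, relative to DMSO controls.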
# [36] = Homo sapiens, Squamous, 72 hours
structure (smiles),measurement,setting,value
COc1ccc2c(c1)=NC1=C(CCc3ccc(O)c(OC)c3)NCCC=21 [518F014],IC50,[1],87.6 µM
same,IC50,[2],50 µM
same,IC50,[3],40.6 µM
same,IC50,[4],79.4 µM
same,IC50,[5],89.4 µM
same,IC50,[6],91.3 µM
same,IC50,[7],96.5 µM
same,IC50,[8],94.1 µM
same,IC50,"[9]; Homo sapiens, OCI-LY3, Diffuse Large B-Cell Lymphoma, 72 hours",> 100 µM
same,IC50,"[10]; Homo sapiens, MDA-MB-231, Triple Negative Breast, 72 hours",78.2 µM
same,IC50,[11]; [36],> 100 µM
same,IC50,[12],80.3 µM
same,IC50,"[13]; MOLP-8, Human Myeloma, 72 hours",86.4 µM
same,IC50,[14],91.2 µM
same,IC50,[15],> 100 µM
same,IC50,"[16]; Homo sapiens, A498, Renal, 72 hours",> 100 µM
same,IC50,"[17]; Homo sapiens, NCI-H1650, Non Small Cell Lung, 72 hours",> 100 µM
same,IC50,"[18]; Homo sapiens, ASPC1, 72 hours",87.1 µM
same,IC50,"[19]; Homo sapiens, DOHH-2, Diffuse Large B-Cell Lymphoma, 72 hours",> 100 µM
same,IC50,"[20]; L-363, L363, Human Myeloma, 72 hours",99.1 µM
same,IC50,[21],> 100 µM
same,IC50,"[22]; Homo sapiens, NCI-H1975, Non Small Cell Lung, 72 hours",79.7 µM
same,IC50,"[23]; Homo sapiens, 72 hours",> 100 µM
same,IC50,"[24]; KMS-34, Human Myeloma, 72 hours",> 100 µM
same,IC50,"[25]; Homo sapiens, HCC70, Triple Negative Breast, 72 hours",> 100 µM
same,IC50,"[26]; JIM1, Human Myeloma, 72 hours",85.2 µM
same,IC50,"[27]; KMM-1, Human Myeloma, 72 hours",82.2 µM
same,IC50,"[28]; Homo sapiens, 72 hours",98.7 µM
same,IC50,"[29]; Homo sapiens, MDA-MB-468, Triple Negative Breast, 72 hours",> 100 µM
same,IC50,[30]; [36],> 100 µM
same,IC50,"[31]; Homo sapiens, 72 hours",> 100 µM
same,IC50,"[32]; Homo sapiens, AN3-CA, 72 hours",88.1 µM
same,IC50,"[33]; Homo sapiens, A2780C/P, 72 hours",> 100 µM
same,IC50,"[34]; Homo sapiens, 72 hours",70.9 µM
COc1ccc2c3c([nH]c2c1)C(CC(CC1=NCCc2c1[nH]c1cc(OC)ccc21)C1CCCCC1)=NCC3 [compound 30],IC50,[35],4.3 µM
same,IC50,"[9]; OCI-LY3, ABC-DLBCL",7.28 µM
same,IC50,"[10]; MDA-MB-231, TNBC",11.1 µM
same,IC50,[11]; H&N - SC,6.82 µM
same,IC50,"[13]; MOLP-8, MM IgD",2.7 µM
same,IC50,"[16]; A498, RCC",17.1 µM
same,IC50,[17]; NSCLC,16.6 µM
same,IC50,[18],11 µM
same,IC50,"[19]; DoHH-2, GCB-DLBCL",5.36 µM
same,IC50,"[20]; L363, PCL/MM",5.57 µM
same,IC50,[22]; NSCLC,11.4 µM
same,IC50,[23],5.47 µM
same,IC50,"[24]; KMS-34, HMCL-B",4.81 µM
same,IC50,"[25]; HCC70, TNBC",18.5 µM
same,IC50,"[26]; JIM1, HMCL",7.07 µM
same,IC50,"[27]; KMM-1, HMCL-A",5.81 µM
same,IC50,[28],7.73 µM
same,IC50,"[29]; MDA-MB-468, TNBC",7.46 µM
same,IC50,[30]; Cervical - SC,17.8 µM
same,IC50,[31],9.91 µM
same,IC50,[32],5.01 µM
same,IC50,[33],8.55 µM
same,IC50,[34],6.45 µM
